From US8906909B2 (Curis, Inc., priority 2009, dated 2014) come the findings set out here.

The test system of this test is HDACs (HeLa cell nuclear extracts). In words: HDAC enzymatic activity, Biomol Color de Lys system. The test is classed as biochemical. As to the method:
(e) An In Vitro Assay which Determines the Ability of a Test Compound to Inhibit HDAC Enzymatic Activity.
HDAC inhibitory activity was assessed using the Biomol Color de Lys system (AK-500, Biomol, Plymouth Meeting, Pa.). Briefly, HeLa cell nuclear extracts were used as a source of HDACs. Different concentrations of test compounds were serially diluted in dimethylsulphoxide (DMSO) and added to HeLa cell nuclear extracts in the presence of a colorimetric artificial substrate. Final assay condition contained 50 mM Tris/Cl, pH 8.0, 137 mM NaCl, 2.7 mM KCl and 1 mM MgCl2. Reactions were carried in room temperature (25° C.) for 1 hour before addition of developer for termination. Relative enzyme activity was measured in the WALLAC Victor II 1420 microplate reader as floorescence intensity (excitation: 350-380 nm; emission: 440-460 nm). Data were analyzed using GraphPad Prism (v4.0a) with a sigmoidal dose response curve fitting for IC50 calculation.

Consider `COc1ncc(-c2nc(N3CCOCC3)c3sc(NS(=O)(=O)c4ccc(/C=C/C(=O)NO)cc4)cc3n2)cn1` [Compound 219], for which the IC50 was under 100 nM. Turning to `COc1ncc(-c2nc(N3CCOCC3)c3sc(NS(=O)(=O)c4cccc(/C=C/C(=O)NO)c4)cc3n2)cn1` [Compound 220], the IC50 was under 100 nM.

For `CNc1ccc(-c2nc(N3CCOCC3)c3sc(NS(=O)(=O)c4ccc(/C=C/C(=O)NO)cc4)cc3n2)cn1` [Compound 223], the IC50 is under 100 nM.

Consider `CNc1ccc(-c2nc(N3CCOCC3)c3sc(NS(=O)(=O)c4cccc(/C=C/C(=O)NO)c4)cc3n2)cn1` [Compound 224], for which the IC50 is under 100 nM. In turn, `COc1ccc(-c2nc(N3CCOCC3)c3sc(NCCCCC(=O)NO)cc3n2)cn1` [Compound 230] had an IC50 of under 100 nM. Consider `O=C(CCCCNc1cc2nc(-c3cc(O)ccc3F)nc(N3CCOCC3)c2s1)NO` [Compound 231], for which the IC50 is under 100 nM. Turning to `Nc1ccc(-c2nc(N3CCOCC3)c3sc(CN(CCO)c4ncc(C(=O)NO)cn4)cc3n2)cn1` [Compound 235], the IC50 was under 100 nM. With `CNc1ccc(-c2nc(N3CCOCC3)c3sc(C(C)(C)N(C)c4ncc(C(=O)NO)cn4)cc3n2)cn1` [Compound 241], the IC50 was under 100 nM.

Consider `CNc1ccc(-c2nc(N3CCOCC3)c3sc(N(C)c4ncc(C(=O)NO)cn4)cc3n2)cn1` [Compound 243], for which the IC50 fell in the range of 100 to 1000 nM.

Turning to `CNc1ccc(-c2nc(N3CCOCC3)c3sc(CN(CCO)c4ncc(C(=O)NO)cn4)cc3n2)cn1` [Compound 245], the IC50 is under 100 nM. Take `COc1ccc(-c2nc(N3CCOCC3)c3sc(C(C)N(C)c4ncc(C(=O)NO)cn4)cc3n2)cn1` (centres unmarked) [Compound 247, N-hydroxy-2-((1-(2-(6-methoxypyridin-3-yl)-4-morpholinothieno[3,2-d]pyrimidin-6-yl)ethyl)(methyl)amino)pyrimidine-5-carboxamide]: the 50% inhibitory concentration (IC50) is under 100 nM. For `COc1ccc(-c2nc(N3CCOCC3)c3sc(C(C)(C)Nc4ncc(C(=O)NO)cn4)cc3n2)cn1` [Compound 250, N-Hydroxy-2-(2-(2-(6-methoxypyridin-3-yl)-4-morpholinothieno[3,2-d]pyrimidin-6-yl)propan-2-ylamino)pyrimidine-5-carboxamide] the value was under 100 nM; for `COc1ccc(-c2nc(N3CCOCC3)c3sc(Nc4ncc(C(=O)NO)cn4)cc3n2)cn1` [Compound 253], 100 to 1000 nM. `CN(Cc1cc2nc(-c3ccc(O)nc3)nc(N3CCOCC3)c2s1)c1ncc(C(=O)NO)cn1` [Compound 254] gave an IC50 of under 100 nM. Compound `CN(Cc1cc2nc(-c3ccc(OCc4ccccc4)nc3)nc(N3CCOCC3)c2s1)c1ncc(C(=O)NO)cn1` [Compound 260] gave an IC50 of under 100 nM. In turn, `COc1ncc(-c2nc(N3CCOCC3)c3sc(C(C)(C)N(C)c4ncc(C(=O)NO)cn4)cc3n2)cn1` [Compound 264] showed an IC50 of under 100 nM.

As to `COc1ccc(-c2nc(N3CCOCC3)c3sc(CN(CCO)c4ncc(C(=O)NO)cn4)cc3n2)cn1` [Compound 265], the IC50 is under 100 nM.

As to `CN(Cc1cc2nc(-c3cnc(OCc4ccccc4)nc3)nc(N3CCOCC3)c2s1)c1ncc(C(=O)NO)cn1` [Compound 266], the IC50 was under 100 nM. `CC(C)(Nc1ncc(C(=O)NO)cn1)c1cc2nc(-c3ccc(N)cc3)nc(N3CCOCC3)c2s1` [Compound 269, 2-(2-(2-(4-Aminophenyl)-4-morpholinothieno[3,2-d]pyrimidin-6-yl)propan-2-ylamino)-N-hydroxypyrimidine-5-carboxamide] gave an IC50 of under 100 nM. To `CN(c1ncc(C(=O)NO)cn1)C(C)(C)c1cc2nc(-c3ccc(N)cc3)nc(N3CCOCC3)c2s1` [Compound 270] belongs under 100 nM.

Compound `CN(c1ncc(C(=O)NO)cn1)c1cc2nc(-c3ccc(N)cc3)nc(N3CCOCC3)c2s1` [Compound 272] returned a half-maximal inhibitory concentration (IC50) of under 100 nM. For `Nc1ccc(-c2nc(N3CCOCC3)c3sc(Nc4ncc(C(=O)NO)cn4)cc3n2)cc1` [Compound 273] the value was 100 to 1000 nM. `Nc1ccc(-c2nc(N3CCOCC3)c3sc(CN(CCO)c4ncc(C(=O)NO)cn4)cc3n2)cc1` [Compound 274] displayed an IC50 of under 100 nM.
